{
  "source": "patent US20150018311A1",
  "about": "“THERAPEUTIC BORON-CONTAINING COMPOUNDS” (priority 2012, published 2015)",
  "key": {"[1]": {"test_system": "Candida albicans (ATCC 90028)", "experiment": "Growth in liquid media in presence of test compound", "type": "cell-based"}, "[2]": {"test_system": "Escherichia coli (ATCC 25922)", "experiment": "Growth in liquid media in presence of test compound", "type": "cell-based"}, "[3]": {"test_system": "Pseudomonas aeruginosa (ATCC 27853)", "experiment": "Growth in liquid media in presence of test compound", "type": "cell-based"}, "[4]": {"test_system": "Staphylococcus aureus (ATCC 25923)", "experiment": "Growth in liquid media in presence of test compound", "type": "cell-based"}, "[5]": {"test_system": "Streptococcus pyogenes (ATCC 19615)", "experiment": "Growth in liquid media in presence of test compound", "type": "cell-based"}, "[6]": {"test_system": "M. tuberculosis", "experiment": "Growth on solid media in presence of test compound", "type": "cell-based, Mycobacterium tuberculosis", "conditions": "result on solid media"}, "[7]": {"test_system": "Candida albicans ATCC90028 (wild type)", "experiment": "Filter paper disc antifungal assay on agar plates", "type": "cell-based", "conditions": "5 mm disc, 37° C. 24 hours", "method": "(§1) Compound 22 (the chloride salt) of table 1 was dissolved and the solution applied to a filter paper disc of diameter 5 mm. The filter paper discs were placed on plates containing the following strains of Candida albicans:\nATCC90028 (“wild type”, i.e. not resistant to nystatin or fluconazole)\n(§2) The compound was applied at concentrations of 0.5, 1, 5, 10, 25 and 50 μg/ml. Nystatin and fluconazole at the same concentrations were applied in the same manner. […] All strains were tested at least three times.\n(§3) Clearly, the higher the number, the greater the antifungal activity."}, "[8]": {"test_system": "Candida albicans ATCC38247 (resistant to fluconazole)", "experiment": "Filter paper disc antifungal assay on agar plates", "type": "cell-based", "conditions": "5 mm disc, 37° C. 24 hours", "method": "as §1\nATCC38247 (resistant to fluconazole)\nas §2, §3"}, "[9]": {"test_system": "Candida albicans MYA576 (resistant to nystatin)", "experiment": "Filter paper disc antifungal assay on agar plates", "type": "cell-based", "conditions": "5 mm disc, 37° C. 24 hours", "method": "as §1\nMYA576 (resistant to nystatin).\nas §2, §3"}, "[10]": {"test_system": "Candida albicans", "experiment": "Filter paper disc antifungal assay, Candida albicans strains overall", "type": "cell-based", "method": "as §1, §2, §3"}},
  "data": [
    {"smiles": "CC1(C)C2CC3OB([C@@H](CNC(=O)[C@@H](N)Cc4ccccc4)Cc4ccc5ccccc5c4)O[C@]3(C)C1C2.Cl", "note": "(stereo partly drawn) [Compound 22, α-naphthyl-β-amino-(−)-pinanedioleboronate-N-]", "values": [
      {"measurement": "Growth in the presence of test compound, C. albicans", "setting": "[1]; 5 mg/L", "result": "+"},
      {"measurement": "Growth in the presence of test compound, C. albicans", "setting": "[1]; 50 mg/L", "result": "−"},
      {"measurement": "Growth in the presence of test compound, C. albicans", "setting": "[1]; 500 mg/L", "result": "±"},
      {"measurement": "Growth in the presence of test compound, E. coli", "setting": "[2]; 5 mg/L", "result": "+"},
      {"measurement": "Growth in the presence of test compound, E. coli", "setting": "[2]; 50 mg/L", "result": "+"},
      {"measurement": "Growth in the presence of test compound, E. coli", "setting": "[2]; 500 mg/L", "result": "+"},
      {"measurement": "Growth in the presence of test compound, P. aeruginosa", "setting": "[3]; 5 mg/L", "result": "+"},
      {"measurement": "Growth in the presence of test compound, P. aeruginosa", "setting": "[3]; 50 mg/L", "result": "±"},
      {"measurement": "Growth in the presence of test compound, P. aeruginosa", "setting": "[3]; 500 mg/L", "result": "+"},
      {"measurement": "Growth in the presence of test compound, S. aureus", "setting": "[4]; 5 mg/L", "result": "+"},
      {"measurement": "Growth in the presence of test compound, S. aureus", "setting": "[4]; 50 mg/L", "result": "±"},
      {"measurement": "Growth in the presence of test compound, S. aureus", "setting": "[4]; 500 mg/L", "result": "+"},
      {"measurement": "Growth in the presence of test compound, S. pyogenes", "setting": "[5]; 5 mg/L", "result": "+"},
      {"measurement": "Growth in the presence of test compound, S. pyogenes", "setting": "[5]; 50 mg/L", "result": "−"},
      {"measurement": "Growth in the presence of test compound, S. pyogenes", "setting": "[5]; 500 mg/L", "result": "+"},
      {"measurement": "Growth in the presence of test compound, M. tuberculosis", "setting": "[6]; 5 mg/L", "result": "+"},
      {"measurement": "Growth in the presence of test compound, M. tuberculosis", "setting": "[6]; 50 mg/L", "result": "+"},
      {"measurement": "Growth in the presence of test compound, M. tuberculosis", "setting": "[6]; 500 mg/L", "result": "−"},
      {"measurement": "diameter of the area which did not show any Candida growth", "setting": "[7]; ATCC90028, 0.5 μg/ml", "result": 5, "unit": "millimeters"},
      {"measurement": "diameter of the area which did not show any Candida growth", "setting": "[7]; ATCC90028, 1 μg/ml", "result": 6, "unit": "millimeters"},
      {"measurement": "diameter of the area which did not show any Candida growth", "setting": "[7]; ATCC90028, 5 μg/ml", "result": 6.875, "unit": "millimeters"},
      {"measurement": "diameter of the area which did not show any Candida growth", "setting": "[7]; ATCC90028, 10 μg/ml", "result": 11.75, "unit": "millimeters"},
      {"measurement": "diameter of the area which did not show any Candida growth", "setting": "[7]; ATCC90028, 25 μg/ml", "result": 15.25, "unit": "millimeters"},
      {"measurement": "diameter of the area which did not show any Candida growth", "setting": "[7]; ATCC90028, 50 μg/ml", "result": 17, "unit": "millimeters"},
      {"measurement": "diameter of the area which did not show any Candida growth", "setting": "[8]; ATCC38247, 0.5 μg/ml", "result": 5, "unit": "millimeters"},
      {"measurement": "diameter of the area which did not show any Candida growth", "setting": "[8]; ATCC38247, 1 μg/ml", "result": 5.21, "unit": "millimeters"},
      {"measurement": "diameter of the area which did not show any Candida growth", "setting": "[8]; ATCC38247, 5 μg/ml", "result": 7.43, "unit": "millimeters"},
      {"measurement": "diameter of the area which did not show any Candida growth", "setting": "[8]; ATCC38247, 10 μg/ml", "result": 12.86, "unit": "millimeters"},
      {"measurement": "diameter of the area which did not show any Candida growth", "setting": "[8]; ATCC38247, 25 μg/ml", "result": 17.29, "unit": "millimeters"},
      {"measurement": "diameter of the area which did not show any Candida growth", "setting": "[8]; ATCC38247, 50 μg/ml", "result": 19.14, "unit": "millimeters"},
      {"measurement": "diameter of the area which did not show any Candida growth", "setting": "[9]; MYA576, 0.5 μg/ml", "result": 5.33, "unit": "millimeters"},
      {"measurement": "diameter of the area which did not show any Candida growth", "setting": "[9]; MYA576, 1 μg/ml", "result": 6.67, "unit": "millimeters"},
      {"measurement": "diameter of the area which did not show any Candida growth", "setting": "[9]; MYA576, 5 μg/ml", "result": 10.67, "unit": "millimeters"},
      {"measurement": "diameter of the area which did not show any Candida growth", "setting": "[9]; MYA576, 10 μg/ml", "result": 12.67, "unit": "millimeters"},
      {"measurement": "diameter of the area which did not show any Candida growth", "setting": "[9]; MYA576, 25 μg/ml", "result": 14.33, "unit": "millimeters"},
      {"measurement": "diameter of the area which did not show any Candida growth", "setting": "[9]; MYA576, 50 μg/ml", "result": 15.67, "unit": "millimeters"},
      {"measurement": "lowest concentration at which activity was shown", "setting": "[10]", "result": 1, "unit": "µg/mL"}
    ]}
  ]
}
